# Measurements published in PubChem BioAssay AID2060615 (Molecular Pharmacology Branch, DTP, NCI, 2025).
# Test system: 496974-208-R-J2-PDC complex spheroids, growth % test/control
# Test: Anticancer human tumor 496974-208-R-J2-PDC patient-derived pancreatic carcinoma cell line growth inhibition [CLK]
# Details: for IC50: curve of first compound; for viability, T/C: stronger effect = lower value
# In short: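 Multi-cell-type spheroids combined patient-derived tumor cells with HUVEC endothelial cells and human mesenchymal stem cells. Paired agents were dosed in half-log steps down from about clinical Cmax, or from 10 microM where Cmax was unknown.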
# [1] = second compound 0.0316 µM, first compound 0.0316 µM
# [2] = second compound 0.0316 µM, first compound 0.1 µM
# [3] = second compound 0.1 µM, first compound 0.0316 µM
# [4] = second compound 0.1 µM, first compound 0.1 µM
# [5] = second compound 0.316 µM, first compound 0.0316 µM
# [6] = second compound 0.316 µM, first compound 0.1 µM
# [7] = second compound 1 µM, first compound 0.0316 µM
# [8] = second compound 1 µM, first compound 0.1 µM
# [9] = second compound 3.16 µM, first compound 0.0316 µM
# [10] = second compound 3.16 µM, first compound 0.1 µM
# [11] = second compound 10 µM, first compound 0.0316 µM
# [12] = second compound 10 µM, first compound 0.1 µM
# [13] = second compound 0.0316 µM, first compound 0.316 µM
# [14] = second compound 0.0316 µM, first compound 1 µM
# [15] = second compound 0.0316 µM, first compound 3.16 µM
# [16] = second compound 0.0316 µM, first compound 10 µM
# [17] = second compound 0.1 µM, first compound 0.316 µM
# [18] = second compound 0.1 µM, first compound 1 µM
# [19] = second compound 0.1 µM, first compound 3.16 µM
# [20] = second compound 0.1 µM, first compound 10 µM
# [21] = second compound 0.316 µM, first compound 0.316 µM
# [22] = second compound 0.316 µM, first compound 1 µM
# [23] = second compound 0.316 µM, first compound 3.16 µM
# [24] = second compound 0.316 µM, first compound 10 µM
# [25] = second compound 1 µM, first compound 0.316 µM
# [26] = second compound 1 µM, first compound 1 µM
# [27] = second compound 1 µM, first compound 3.16 µM
# [28] = second compound 1 µM, first compound 10 µM
# [29] = second compound 3.16 µM, first compound 0.316 µM
# [30] = second compound 3.16 µM, first compound 1 µM
# [31] = second compound 3.16 µM, first compound 3.16 µM
# [32] = second compound 3.16 µM, first compound 10 µM
# [33] = second compound 10 µM, first compound 0.316 µM
# [34] = second compound 10 µM, first compound 1 µM
# [35] = second compound 10 µM, first compound 3.16 µM
# [36] = second compound 10 µM, first compound 10 µM
# 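Further: spheroids exposed to the drugs for 7 days before readout.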
# 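Wherever viability, T/C is given: 100% = DMSO vehicle control wells.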
compound,measurement,setting,value
Cn1ncnc1[C@H]1c2n[nH]c(=O)c3cc(F)cc(c23)N[C@@H]1c1ccc(F)cc1 + CNC(=O)c1ccc(Nc2nc(OC3CCCC3)c3c(-c4ccc5nc(C)oc5c4)c[nH]c3n2)c(OC)c1,IC50,second compound 0.0316 µM,> 100 nM
same,IC50,second compound 0.1 µM,> 100 nM
same,IC50,second compound 0.316 µM,> 100 nM
same,IC50,second compound 1 µM,> 100 nM
same,IC50,second compound 3.16 µM,> 100 nM
same,IC50,second compound 10 µM,> 100 nM
same,"viability, T/C","second compound 0.0316 µM, first compound 0.000316 µM",103%
same,"viability, T/C","second compound 0.0316 µM, first compound 0.001 µM",110%
same,"viability, T/C","second compound 0.0316 µM, first compound 0.00316 µM",95%
same,"viability, T/C","second compound 0.0316 µM, first compound 0.01 µM",100%
same,"viability, T/C",[1],98.2%
same,"viability, T/C",[2],85.7%
same,"viability, T/C","second compound 0.1 µM, first compound 0.000316 µM",77%
same,"viability, T/C","second compound 0.1 µM, first compound 0.001 µM",83.3%
same,"viability, T/C","second compound 0.1 µM, first compound 0.00316 µM",83.1%
same,"viability, T/C","second compound 0.1 µM, first compound 0.01 µM",94.6%
same,"viability, T/C",[3],74.6%
same,"viability, T/C",[4],78%
same,"viability, T/C","second compound 0.316 µM, first compound 0.000316 µM",82%
same,"viability, T/C","second compound 0.316 µM, first compound 0.001 µM",84%
same,"viability, T/C","second compound 0.316 µM, first compound 0.00316 µM",99.9%
same,"viability, T/C","second compound 0.316 µM, first compound 0.01 µM",80.4%
same,"viability, T/C",[5],78.3%
same,"viability, T/C",[6],67.9%
same,"viability, T/C","second compound 1 µM, first compound 0.000316 µM",72.4%
same,"viability, T/C","second compound 1 µM, first compound 0.001 µM",73.5%
same,"viability, T/C","second compound 1 µM, first compound 0.00316 µM",68.9%
same,"viability, T/C","second compound 1 µM, first compound 0.01 µM",76.7%
same,"viability, T/C",[7],74.9%
same,"viability, T/C",[8],65%
same,"viability, T/C","second compound 3.16 µM, first compound 0.000316 µM",69.3%
same,"viability, T/C","second compound 3.16 µM, first compound 0.001 µM",62.8%
same,"viability, T/C","second compound 3.16 µM, first compound 0.00316 µM",57.4%
same,"viability, T/C","second compound 3.16 µM, first compound 0.01 µM",61.5%
same,"viability, T/C",[9],67.2%
same,"viability, T/C",[10],65%
same,"viability, T/C","second compound 10 µM, first compound 0.000316 µM",55.5%
same,"viability, T/C","second compound 10 µM, first compound 0.001 µM",55%
same,"viability, T/C","second compound 10 µM, first compound 0.00316 µM",55.7%
same,"viability, T/C","second compound 10 µM, first compound 0.01 µM",54.1%
same,"viability, T/C",[11],54.2%
same,"viability, T/C",[12],52.7%
Nc1ccn(C2OC(CO)C(O)C2(F)F)c(=O)n1 (stereo unspecified) + CNC(=O)c1ccc(Nc2nc(OC3CCCC3)c3c(-c4ccc5nc(C)oc5c4)c[nH]c3n2)c(OC)c1,IC50,second compound 0.0316 µM,> 10000 nM
same,IC50,second compound 0.1 µM,> 10000 nM
same,IC50,second compound 0.316 µM,> 10000 nM
same,IC50,second compound 1 µM,2760 nM
same,IC50,second compound 3.16 µM,279 nM
same,IC50,second compound 10 µM,60.6 nM
same,"viability, T/C",[1],94.5%
same,"viability, T/C",[2],80%
same,"viability, T/C",[13],67%
same,"viability, T/C",[14],65.4%
same,"viability, T/C",[15],68.5%
same,"viability, T/C",[16],58.5%
same,"viability, T/C",[3],75.3%
same,"viability, T/C",[4],80.7%
same,"viability, T/C",[17],64.6%
same,"viability, T/C",[18],62.9%
same,"viability, T/C",[19],60.7%
same,"viability, T/C",[20],54%
same,"viability, T/C",[5],63.3%
same,"viability, T/C",[6],74.2%
same,"viability, T/C",[21],69.9%
same,"viability, T/C",[22],54.8%
same,"viability, T/C",[23],59.6%
same,"viability, T/C",[24],65.2%
same,"viability, T/C",[7],66.4%
same,"viability, T/C",[8],62.5%
same,"viability, T/C",[25],66.6%
same,"viability, T/C",[26],53.5%
same,"viability, T/C",[27],44.4%
same,"viability, T/C",[28],54.7%
same,"viability, T/C",[9],63.1%
same,"viability, T/C",[10],59.8%
same,"viability, T/C",[29],49.2%
same,"viability, T/C",[30],41%
same,"viability, T/C",[31],42.1%
same,"viability, T/C",[32],43.7%
same,"viability, T/C",[11],52.8%
same,"viability, T/C",[12],49%
same,"viability, T/C",[33],44.4%
same,"viability, T/C",[34],39.6%
same,"viability, T/C",[35],40.6%
same,"viability, T/C",[36],43.1%
O=c1[nH]cc(F)c(=O)[nH]1 + CNC(=O)c1ccc(Nc2nc(OC3CCCC3)c3c(-c4ccc5nc(C)oc5c4)c[nH]c3n2)c(OC)c1,IC50,second compound 0.0316 µM,> 10000 nM
same,IC50,second compound 0.1 µM,> 10000 nM
same,IC50,second compound 0.316 µM,> 10000 nM
same,IC50,second compound 1 µM,6380 nM
same,IC50,second compound 3.16 µM,> 10000 nM
same,IC50,second compound 10 µM,1210 nM
same,"viability, T/C",[1],102%
same,"viability, T/C",[2],88.6%
same,"viability, T/C",[13],92.7%
same,"viability, T/C",[14],85.3%
same,"viability, T/C",[15],72.2%
same,"viability, T/C",[16],61.8%
same,"viability, T/C",[3],74.8%
same,"viability, T/C",[4],83.1%
same,"viability, T/C",[17],76.2%
same,"viability, T/C",[18],81.8%
same,"viability, T/C",[19],70.7%
same,"viability, T/C",[20],58.7%
same,"viability, T/C",[5],78.5%
same,"viability, T/C",[6],76.4%
same,"viability, T/C",[21],68.2%
same,"viability, T/C",[22],70.4%
same,"viability, T/C",[23],67.1%
same,"viability, T/C",[24],54.6%
same,"viability, T/C",[7],73.7%
same,"viability, T/C",[8],67.3%
same,"viability, T/C",[25],71.5%
same,"viability, T/C",[26],69%
same,"viability, T/C",[27],56.9%
same,"viability, T/C",[28],45.6%
same,"viability, T/C",[9],63.5%
same,"viability, T/C",[10],58.6%
same,"viability, T/C",[29],64%
same,"viability, T/C",[30],54%
same,"viability, T/C",[31],55.2%
same,"viability, T/C",[32],48.5%
same,"viability, T/C",[11],51.8%
same,"viability, T/C",[12],58.5%
same,"viability, T/C",[33],54.2%
same,"viability, T/C",[34],51.8%
same,"viability, T/C",[35],41.3%
same,"viability, T/C",[36],39%
